Several values for one entry are separate records, joined by “and”; a condition that tells them apart may be missing. Identical values can stand only once. Toxic doses and inconclusive results are not listed. Rule as the data show it: active = T/C of 150% or more; inactive = T/C below 125%.
Tested on: L1210 leukemia ip in BDF1 mice, survival T/C
Test: NCI In Vivo Anticancer Drug Screen. Data for tumor model L1210 Leukemia (intraperitoneal) in B6D2F1 (BDF1) mice
Settings: endpoint: mean survival time, higher = longer survival
In short: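 Read-out is survival time, reported as the treated-group measurement over the vehicle-control measurement.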

[1] = dose: 100.0 mg/kg/injection, schedule: Q01DX009 (ip), vehicle: saline with Tween-80
[2] = dose: 100.0 mg/kg/injection, schedule: Q04DX003 (ip), vehicle: saline with Tween-80
[3] = dose: 200.0 mg/kg/injection, schedule: Q01DX009 (ip), vehicle: saline with Tween-80
[4] = dose: 200.0 mg/kg/injection, schedule: Q04DX003 (ip), vehicle: saline with Tween-80
[5] = dose: 400.0 mg/kg/injection, schedule: Q01DX009 (ip), vehicle: saline with Tween-80
[6] = dose: 400.0 mg/kg/injection, schedule: Q04DX003 (ip), vehicle: saline with Tween-80
[7] = dose: 100.0 mg/kg/injection, schedule: Q01DX001 (ip), vehicle: saline
[8] = dose: 200.0 mg/kg/injection, schedule: Q01DX001 (ip), vehicle: saline
[9] = dose: 400.0 mg/kg/injection, schedule: Q01DX001 (ip), vehicle: saline
[10] = dose: 100.0 mg/kg/injection, schedule: Q01DX001 (ip), vehicle: carboxymethylcellulose (CMC)
[11] = dose: 100.0 mg/kg/injection, schedule: Q01DX009 (ip), vehicle: Klucel (hydroxypropylcellulose) (HPC)
[12] = dose: 200.0 mg/kg/injection, schedule: Q01DX009 (ip), vehicle: Klucel (hydroxypropylcellulose) (HPC)
[13] = dose: 400.0 mg/kg/injection, schedule: Q01DX009 (ip), vehicle: Klucel (hydroxypropylcellulose) (HPC)
[14] = dose: 100.0 mg/kg/injection, schedule: Q04DX003 (ip), vehicle: saline
[15] = dose: 50.0 mg/kg/injection, schedule: Q01DX009 (ip), vehicle: Klucel (hydroxypropylcellulose) (HPC)
[16] = dose: 100.0 mg/kg/injection, schedule: Q01DX009 (ip), vehicle: saline
[17] = dose: 100.0 mg/kg/injection, schedule: Q04DX003 (ip), vehicle: Klucel (hydroxypropylcellulose) (HPC)
[18] = dose: 200.0 mg/kg/injection, schedule: Q04DX003 (ip), vehicle: Klucel (hydroxypropylcellulose) (HPC)
[19] = dose: 400.0 mg/kg/injection, schedule: Q04DX003 (ip), vehicle: Klucel (hydroxypropylcellulose) (HPC)
[20] = dose: 200.0 mg/kg/injection, schedule: Q01DX009 (ip), vehicle: saline

Measured: T/C

CC(=O)[O][Sb]([O]C(C)=O)([c]1ccccc1)([c]1ccccc1)[c]1ccccc1
inactive: dose: 100.0 mg/kg/injection, schedule: Q04DX002 (ip), vehicle: saline with Tween-80 96 % of control | dose: 200.0 mg/kg/injection, schedule: Q04DX002 (ip), vehicle: saline with Tween-80 96 % of control | dose: 400.0 mg/kg/injection, schedule: Q04DX002 (ip), vehicle: saline with Tween-80 96 % of control

Cc1ccc(S(=O)(=O)OC2CS(=O)(=O)C2)cc1
inactive: [1] 100 % of control | [2] 105 % of control | [3] 95 % of control | [4] 100 % of control | [5] 105 % of control | [6] 97 % of control

Oc1c(CN2CCOCC2)cc(N=Nc2ccccc2)c(O)c1CN1CCOCC1
inactive: [7] 88 % of control | [8] 104 % of control | [9] 88 % of control

c1cc[n+](Cc2nc3ccccc3[nH]2)cc1
inactive: [7] 102 % of control and 95 % of control

COc1nc2ccccc2nc1N1CC1
inactive: dose: 26.0 mg/kg/injection, schedule: Q01DX009 (ip), vehicle: acetone 103 % of control | dose: 40.0 mg/kg/injection, schedule: Q01DX009 (ip), vehicle: acetone 101 % of control | dose: 60.0 mg/kg/injection, schedule: Q01DX009 (ip), vehicle: acetone 108 % of control | dose: 90.0 mg/kg/injection, schedule: Q01DX009 (ip), vehicle: acetone 101 % of control | dose: 135.0 mg/kg/injection, schedule: Q01DX009 (ip), vehicle: acetone 121 % of control

Cc1ccc(NC2CNC(=O)NC2=O)cc1C (stereo not drawn)
inactive: dose: 100.0 mg/kg/injection, schedule: Q01DX Z (ip), vehicle: saline 91 % of control | dose: 200.0 mg/kg/injection, schedule: Q01DX Z (ip), vehicle: saline 87 % of control

Nc1c(Br)cc(Br)c2[nH]c(=O)c3ccccc3c12
inactive: [10] 104 % of control | dose: 200.0 mg/kg/injection, schedule: Q01DX001 (ip), vehicle: carboxymethylcellulose (CMC) 96 % of control | dose: 400.0 mg/kg/injection, schedule: Q01DX001 (ip), vehicle: carboxymethylcellulose (CMC) 98 % of control

NCCOS(=O)(=O)O
inactive: [11] 105 % of control | [1] 92 % of control | [12] 101 % of control | [3] 108 % of control | [13] 100 % of control | [5] 99 % of control

Clc1ccc2c(c1)-c1ccccc1C1=NCCN12
inactive: dose: 5.0 mg/kg/injection, schedule: Q01DX009 (ip), vehicle: Klucel (hydroxypropylcellulose) (HPC) 95 % of control | dose: 10.0 mg/kg/injection, schedule: Q01DX009 (ip), vehicle: Klucel (hydroxypropylcellulose) (HPC) 101 % of control | dose: 10.0 mg/kg/injection, schedule: Q04DX003 (ip), vehicle: Klucel (hydroxypropylcellulose) (HPC) 101 % of control | dose: 20.0 mg/kg/injection, schedule: Q04DX003 (ip), vehicle: Klucel (hydroxypropylcellulose) (HPC) 110 % of control

CC[CH2][Sn]([CH2]CC)([CH2]CC)[CH2]CC
inactive: dose: 50.0 mg/kg/injection, schedule: Q01DX001 (ip), vehicle: carboxymethylcellulose (CMC) 95 % of control | [10] 86 % of control

C=CCc1cc(CN(C)CCO)c(O)c(OC)c1
inactive: dose: 25.0 mg/kg/injection, schedule: Q04DX003 (ip), vehicle: saline 95 % of control | dose: 50.0 mg/kg/injection, schedule: Q04DX003 (ip), vehicle: saline 95 % of control | [14] 91 % of control

c1ccc2c(c1)C1C3CCC(C3)C21 (stereo not drawn)
inactive: [2] 98 % of control | [6] 98 % of control

Clc1ccc(-c2nnc(-c3cccc4ccccc34)o2)cc1Cl
inactive: [1] 89 % of control | [2] 86 % of control | [4] 92 % of control | [5] 86 % of control | [6] 86 % of control

COc1c(Br)cc(C(=O)C(C)C)c(O)c1C
inactive: dose: 75.0 mg/kg/injection, schedule: Q04DX003 (ip), vehicle: Klucel (hydroxypropylcellulose) (HPC) 95 % of control | dose: 150.0 mg/kg/injection, schedule: Q04DX003 (ip), vehicle: Klucel (hydroxypropylcellulose) (HPC) 103 % of control | dose: 300.0 mg/kg/injection, schedule: Q04DX003 (ip), vehicle: Klucel (hydroxypropylcellulose) (HPC) 95 % of control

O=C(O)c1ccc(C(=O)O)nn1
inactive: dose: 100.0 mg/kg/injection, schedule: Q04DX002 (ip), vehicle: saline 96 % of control | dose: 200.0 mg/kg/injection, schedule: Q04DX002 (ip), vehicle: saline 90 % of control

CC(C)C(=O)NC(Cc1ccccc1)C(=O)N(Cc1ccccc1)N=O (stereo not drawn)
inactive: dose: 32.0 mg/kg/injection, schedule: Q04DX002 (ip), vehicle: Klucel (hydroxypropylcellulose) (HPC) 94 % of control | dose: 63.0 mg/kg/injection, schedule: Q04DX002 (ip), vehicle: Klucel (hydroxypropylcellulose) (HPC) 97 % of control | dose: 125.0 mg/kg/injection, schedule: Q04DX002 (ip), vehicle: Klucel (hydroxypropylcellulose) (HPC) 94 % of control

NC(N)=NC(N)=Nc1ccc(Cl)c(Cl)c1
inactive: dose: 25.0 mg/kg/injection, schedule: Q01DX009 (ip), vehicle: Klucel (hydroxypropylcellulose) (HPC) 100 % of control | dose: 25.0 mg/kg/injection, schedule: Q01DX009 (ip), vehicle: saline 104 % of control | [15] 104 % of control | dose: 50.0 mg/kg/injection, schedule: Q01DX009 (ip), vehicle: saline 98 % of control | dose: 75.0 mg/kg/injection, schedule: Q01DX009 (ip), vehicle: Klucel (hydroxypropylcellulose) (HPC) 102 % of control | [16] 91 % of control | [2] 100 % of control

O=c1[nH]cnc2c1ncn2CCCCc1ccccc1
inactive: dose: 100.0 mg/kg/injection, schedule: Q04DX002 (ip), vehicle: Klucel (hydroxypropylcellulose) (HPC) 108 % of control | dose: 200.0 mg/kg/injection, schedule: Q04DX002 (ip), vehicle: Klucel (hydroxypropylcellulose) (HPC) 101 % of control | dose: 400.0 mg/kg/injection, schedule: Q04DX002 (ip), vehicle: Klucel (hydroxypropylcellulose) (HPC) 105 % of control

O=P(Cc1ccccc1)(OCCCl)Oc1ccccc1 (stereo not drawn)
inactive: [11] 102 % of control | [17] 91 % of control | [12] 98 % of control | [18] 96 % of control | [13] 96 % of control | [19] 96 % of control

CCCCCCCCCCCCCCC(F)C(=O)O (stereo not drawn)
inactive: [15] 96 % of control | [11] 101 % of control | [17] 92 % of control | [18] 91 % of control

CC(C)(C)C(=O)NCc1ccccc1
inactive: dose: 100.0 mg/kg/injection, schedule: Q01DX001 (ip), vehicle: saline with Tween-80 100 % of control | dose: 200.0 mg/kg/injection, schedule: Q01DX001 (ip), vehicle: saline with Tween-80 96 % of control | dose: 400.0 mg/kg/injection, schedule: Q01DX001 (ip), vehicle: saline with Tween-80 96 % of control

O=C1NC2(c3ccccc3)NC(=O)NC2(c2ccccc2)N1 (stereo not drawn)
inactive: [7] 97 % of control | [16] 91 % of control | [14] 102 % of control | [8] 92 % of control | [20] 97 % of control | dose: 200.0 mg/kg/injection, schedule: Q04DX003 (ip), vehicle: saline 95 % of control | [9] 100 % of control | dose: 400.0 mg/kg/injection, schedule: Q01DX009 (ip), vehicle: saline 102 % of control | dose: 400.0 mg/kg/injection, schedule: Q04DX003 (ip), vehicle: saline 102 % of control

CCOC(=O)/C(C(C)=O)=C(/O)c1ccc(OC(F)(F)C(F)Cl)cc1OC(F)(F)C(F)Cl.CCOC(=O)/C(C(C)=O)=C(/O)c1ccc(OC(F)(F)C(F)Cl)cc1OC(F)(F)C(F)Cl.[Cu] (stereo not drawn)
inactive: [11] 88 % of control | [17] 100 % of control | [12] 94 % of control | [18] 101 % of control | [19] 101 % of control

CCc1ccc(CCSCCc2ccc(CC)c[n+]2[O-])[n+]([O-])c1
inactive: [7] 96 % of control | [8] 100 % of control

CCOC(=O)c1cnc(NN)nc1Nc1cc(Cl)cc(Cl)c1
inactive: [4] 90 % of control

CC(C)OP(=O)(CP(=O)(OC(C)C)OC(C)C)OC(C)C
inactive: [16] 95 % of control | [20] 97 % of control

O=C(Nc1ccc([N+](=O)[O-])cc1)N(c1cc(Cl)ccn1)C1CCCCC1
inactive: [7] 96 % of control | [8] 90 % of control | [9] 96 % of control
